Experiments:
[1] = system: primary human T cells; assay: T cell viability by flow cytometry (near-IR LIVE/DEAD stain); assay type: cell-based; settings: for cytotoxicity: concentration-dependent profiles, at <20 μM
Description: FIG. 4A-4D is an overview of a multidimensional screen to identify elaborated electrophilic compounds that suppress T cell activation. FIG. 4A is a workflow for T-cell activation screen. Primary human T cells were treated with a focused library of elaborated electrophilic compounds (10 μM, structures of compounds in FIG. 12), a positive control immunosuppressive compound (DMF, 50 μM), or DMSO under TCR-stimulating conditions in 96-well plates pre-coated with 5 μg/mL αCD3 and 2 μg/mL αCD28 for 24 h. T cell activation was measured using a combination of markers, including IL2 and IFNγ secretion, as well as surface expression of CD25 and CD69. T cell viability was measured by flow cytometry using a Fixable Near-IR LIVE/DEAD™ Cell Stain. Compounds were considered as active hits if they reduced IL2 cytokine production by >65% with <15% reduction in T cell viability in the cytotoxicity assay compared to DMSO control. […] FIG. 4C are structures of active hit compounds selected for follow-up studies, including two acrylamides (BPK-21, BPK-25), two chloroacetamides (EV-3, EV-93) and DMF as a positive control. FIG. 4D are line graphs showing T cell activation and cytotoxicity profiles for selected hit compounds.
Non-tissue culture treated 96-well plates were pre-coated with αCD3 (5 μg/mL) and αCD28 antibodies (2 μg/mL) in PBS (100 μL/well) and left at 4° C. overnight. Freshly isolated T cells were re-suspended in RPMI media supplemented with 10% FBS, L-glutamine (2 mM), penicillin (100 U/mL), and streptomycin ([…]) at 2×10^6 cells/mL. Compound stocks (200×) in DMSO were diluted to 2× stocks in the working RPMI media in another 96-well plate. The pre-coated 96-well treatment plates were washed with PBS ([…]), T cells (100 μL/well, 2×10^5 cells/well) were then added to the wells, followed by the addition of 2× compound stocks in RPMI media (100 μL). The outer wells of the plates were filled with media without cells to avoid the edge effect in the assay. The treatment was done overnight (24 h) at 37° C. in a 5% CO2 containing incubator. Following the treatment, the cells were transferred to a U-bottom 96-well plate and harvested by centrifugation (600 g, 3 min, 4° C.). The supernatants were kept and stored at −80° C. for further cytokine analysis, while the cells were washed with PBS (2×150 μL) prior to staining for flow cytometry analysis.
Following the PBS washes, the cells were stained with fixable near-IR LIVE/DEAD cell stain (Invitrogen) according to manufacturer's instructions. Briefly, one vial of near-IR LIVE/DEAD dye was resuspended in DMSO (50 μL) and diluted with PBS (1:1000). The diluted stain was added to each well (200 μL) and the cells were incubated for 30 min at room temperature in the dark. After this time, the cells were pelleted (600 g, 3 min, 4° C.), washed once with PBS (200 μL/well) and incubated with a freshly made cocktail of antibodies for the appropriate cell surface markers diluted in PBS containing 2% FBS (1:400 antibody dilution).

[2] = system: FAM213B and HLA-F; assay: Expression-based proteomics (TMT-exp) of compound-treated T cells, FAM213B and HLA-F; assay type: cell-based, human; settings: 24 h; >3000 total proteins quantified
Description: FIG. 7B is a scatter plot representation of protein abundance changes caused by BPK-25 (10 μM, 24 h) in two independent replicate experiments, with decreases in NuRD complex components highlighted in red. FIG. 7C is a heatmap of top proteins with decreased abundance in BPK-25-treated T cells showing that the subset of these proteins in the NuRD complex (asterisks) were largely unaltered by other active compounds and blocked in their degradation by co-treatment with the proteasome inhibitor MG132. […] FIG. 7E is a bar graph […] showing time-dependent reductions in NuRD complex members in human T cells treated with BPK-25 (10 μM). Left, representative western blots. Right, quantification of changes in protein. […] FIG. 7G is a heat map showing the changes in cysteine reactivity for NuRD complex members in human T cells treated with BPK-25 and other active compounds.
Freshly isolated T cells (1.6×10^7 cells, 2×10^6 cells/mL in RPMI media) were treated with compound or DMSO for 24 h, pelleted (600 g, 5 min), and washed with PBS (1×10 mL). The cells were then transferred to an Eppendorf tube in additional PBS (1 mL), pelleted (600 g, 5 min), flash frozen, and kept at −80° C. until further analysis. […]
At individual TMT experiment level, the following filters were applied to remove low-quality peptides: removal of non-unique peptides; removal of half-tryptic peptides; removal of peptides with more than one internal miscleaved site; removal of cysteine-containing peptides; removal of peptides with low (<10,000) sum of reporter ion intensities for control channels, and peptides with high variation between the replicate control channels (coefficient of variance >0.5). R values (compound-treated vs. DMSO-treated) were calculated using the reporter ion intensities of compound and DMSO treated TMT channels for each treatment group. […] Proteins were required to have at least two unique quantified peptides in each experiment and were quantified in at least two independent experiments.

Row | SMILES | cytotoxicity [1] | reductions in FAM213B and HLA-F [2] | viability ([1]; electrophilic compounds 10 μM each (DMF 50 μM), 24 h) [%]
1 | C=CC(=O)N(Cc1cccc(Cl)c1Cl)c1ccc(Oc2ccccc2)c(C(F)(F)F)c1 [BPK-21] | negligible cytotoxicity | also affected | 
2 | C=CC(=O)N(Cc1cccc(Cl)n1)c1ccc(C(=O)Nc2ccccc2)nc1 [BPK-25] | negligible cytotoxicity | > 50% | 
3 | COC(=O)/C=C/C(=O)OC [DMF, reference compound] |  |  | > 85
4 | O=C(CCl)N1CCN(S(=O)(=O)c2ccc(-c3ccncc3)cc2)CC1 [EV-3] | negligible cytotoxicity | also affected | 
